What was measured:
[1] = Conditioned taste aversion in rats; type: in vivo, rat; details: IP 1500 μg/kg, saccharin water intake day 1 vs day 3, FIG. 6
Description: Conditioned taste aversion was evaluated in rats using selected peptides. Male Sprague-Dawley rats weighing ˜300 g were kept on a 12 hour on/of light cycle. Lights out was adjusted to 12:00 p.m. with food ad libitum. Animals were trained to be accustomed to 30 minutes of access to water per day. On day 1 of the experiment, rats were given 30 minutes of access to water containing 0.15% saccharin immediately prior to being dosed ICV, IV or IP with compound. On day 2 they were given plain water for the appointed time. On day 3 the rats were given saccharin-containing water again. The amount of fluid these animals consumed on day 1 and day 3 was compared. Reduced intake on day 3 indicates a conditioned taste aversion due to illness induced by drug treatment on day 1.

hMC5-R = target: T1, hMC5-R (Homo sapiens, UniProt P33032); assay: Competitive inhibition binding assay, 125I-NDP-alpha-MSH, hMC5-R membranes
T1 construct: expressed in transfected cells

MC4-R [2] = target: T2, MC4-R (Homo sapiens, UniProt P32245); assay: Competitive inhibition binding assay, 125I-NDP-alpha-MSH, hMC4-R membranes; parameters: expressed in transfected cells
MC1-R = MC1-R (Mus musculus, UniProt Q01727); assay: Competitive inhibition binding assay, 125I-NDP-alpha-MSH, B-16 mouse melanoma cell membranes; details: B-16 cells; read-out: Ki MC-1 B-16
hMC3-R = target: T3, hMC3-R (Homo sapiens, UniProt P41968); assay: Competitive inhibition binding assay, 125I-NDP-alpha-MSH, hMC3-R membranes
T3 construct: expressed in transfected cells

[3] = Food intake and body weight change in male Sprague-Dawley rats; type: in vivo, rat; details: for average daily body weight gain / average daily body weight lost: saline animals gained 4 g
Description: Food intake and body weight change was evaluated for selected peptides. Male Sprague-Dawley rats weighing ˜300 g at the beginning of the experiment were kept on a 12 hour on/of light cycle. Lights out was adjusted to 12:00 p.m. to allow for dosing just prior to the start of their dark period. Rats (12/group) were fed powdered chow and water ad libitum. For 1 week before treatment, 24-hour food intake and body weight change was recorded to assess a baseline for the group during vehicle treatment. The rats were dosed ICV, IV, SC or IP on day 0 and food intake and body weight measured daily for 1 week. Animals were dosed once per week for up to 6 weeks and their food intake and daily weight changed compared to their baseline. FIGS. 3, 4 and 5 illustrate results of different peptides at different doses and by varying routes of administration.

MC4-R [4] = target: T2, MC4-R; assay: Functional evaluation: intracellular cAMP accumulation in HEK-293 cells expressing MC4-R (agonist/antagonist status); type: cell-based; parameters: expressed in transfected cells; host or cells: HEK-293; details: with or without alpha-MSH, 1 hour at 37° C
Description: The Ki (nM) of certain peptides were determined, as was the agonist/antagonist status with respect to MC4-R. Functional evaluation of peptides at MC4-R was performed by measuring the accumulation of intracellular cAMP in HEK-293 cells expressing MC4-R. Antagonistic activity was determined by measuring the inhibition of α-MSH-induced cAMP levels following exposure to the compounds. Cells, suspended in Earle's Balanced Salt Solution containing 10 mM HEPES, pH 7.5, 5 mM MgCl2, 1 mM glutamine, 0.1% albumin and 0.6 mM 3-isobutyl-1-methyl-xanthine, a phosphodiesterase inhibitor, were plated in 96 well plates at a density of 0.5×10^5 cells per well. Cells were incubated with the test peptides in the presence or absence of α-MSH for 1 hour at 37° C. cAMP levels were measured by EIA (Amersham) in the cell lysates. Data analysis and EC50 values were determined using nonlinear regression analysis with Prism Graph-Pad software.

[5] = Penile erection induction in male rats; type: in vivo, rat; details: male Sprague-Dawley rats; iv, varying quantities; 30 minutes observation; FIG. 2
Description: The ability of compounds to induce penile erection (PE) in male rats was evaluated with selected peptides. Male Sprague-Dawley rats weighing 200-250 g were kept on a 12 hour on/off light cycle with food and water ad libitum. All behavioral studies were performed between 10 a.m. and 5 p.m. Groups of 4-8 rats were treated with peptides at a variety of doses via intravenous (IV), subcutaneous (SC), intracerebroventricular (ICV), intraperitoneal (IP) injection or administered intranasally (IN) using a micropipetor to deliver 25 μL of solution into one nostril. Immediately after treatment, rats were placed into individual polystyrene cages (27 cm long, 16 cm wide, and 25 cm high) for behavioral observation.

T2 sequence (P32245 whole entry): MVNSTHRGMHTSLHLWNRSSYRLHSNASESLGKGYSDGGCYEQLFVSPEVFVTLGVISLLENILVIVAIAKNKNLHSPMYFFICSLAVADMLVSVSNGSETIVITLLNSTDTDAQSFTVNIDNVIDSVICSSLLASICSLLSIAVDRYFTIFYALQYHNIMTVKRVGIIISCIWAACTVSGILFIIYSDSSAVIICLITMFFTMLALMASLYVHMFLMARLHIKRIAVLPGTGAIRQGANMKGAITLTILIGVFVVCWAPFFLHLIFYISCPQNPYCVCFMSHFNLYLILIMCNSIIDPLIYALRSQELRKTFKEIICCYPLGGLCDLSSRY
T3 sequence (P41968 whole entry): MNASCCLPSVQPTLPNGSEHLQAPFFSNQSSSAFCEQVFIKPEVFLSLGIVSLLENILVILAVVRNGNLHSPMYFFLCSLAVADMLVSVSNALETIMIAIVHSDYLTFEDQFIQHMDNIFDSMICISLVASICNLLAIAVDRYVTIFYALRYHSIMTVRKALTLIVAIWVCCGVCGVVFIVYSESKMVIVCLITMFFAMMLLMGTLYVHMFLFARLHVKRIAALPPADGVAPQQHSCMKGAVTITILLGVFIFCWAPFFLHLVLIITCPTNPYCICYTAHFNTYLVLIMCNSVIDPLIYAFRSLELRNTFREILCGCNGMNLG
T1 sequence (P33032 whole entry): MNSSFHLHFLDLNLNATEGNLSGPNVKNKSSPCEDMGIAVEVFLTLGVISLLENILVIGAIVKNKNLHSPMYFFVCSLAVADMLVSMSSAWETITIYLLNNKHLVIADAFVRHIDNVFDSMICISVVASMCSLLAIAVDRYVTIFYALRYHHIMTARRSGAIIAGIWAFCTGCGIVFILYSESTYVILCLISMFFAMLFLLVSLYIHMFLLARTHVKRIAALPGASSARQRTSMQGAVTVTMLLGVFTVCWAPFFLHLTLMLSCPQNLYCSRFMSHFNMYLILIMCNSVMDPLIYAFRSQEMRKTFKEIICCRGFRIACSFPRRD
MC1-R, sequence (Q01727 whole entry): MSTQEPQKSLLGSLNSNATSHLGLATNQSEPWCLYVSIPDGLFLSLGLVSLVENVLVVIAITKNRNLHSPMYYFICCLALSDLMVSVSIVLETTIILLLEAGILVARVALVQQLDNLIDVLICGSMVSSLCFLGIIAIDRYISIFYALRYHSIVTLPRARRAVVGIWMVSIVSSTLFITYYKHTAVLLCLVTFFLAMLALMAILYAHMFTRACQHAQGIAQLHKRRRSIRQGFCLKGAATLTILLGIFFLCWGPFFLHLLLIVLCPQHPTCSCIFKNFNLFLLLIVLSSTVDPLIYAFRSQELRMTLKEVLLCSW

conditioned taste aversion response [1]: no conditioned taste aversion response
percent inhibition of 125I-NDP-alpha-MSH binding, MC5-R (hMC5-R; hMC5-R membranes, 0.4 nM 125I-NDP-alpha-MSH, mean of triplicate, peptide concentration not given): 73%
Ki (hMC5-R; membranes, read-out: Ki MC-5 Mem): 175 nM
percent inhibition of 125I-NDP-alpha-MSH binding, MC4-R (MC4-R [2]; hMC4-R membranes, 0.4 nM 125I-NDP-alpha-MSH, mean of triplicate, peptide concentration not given): 99%
Ki (MC4-R [2]; membranes, read-out: Ki MC-4 Mem): 1 nM
Ki (MC1-R): 795 nM
percent inhibition of 125I-NDP-alpha-MSH binding, MC3-R (hMC3-R; hMC3-R membranes, 0.4 nM 125I-NDP-alpha-MSH, mean of triplicate, peptide concentration not given): 94%
Ki (hMC3-R; membranes, read-out: Ki MC-3 Mem): 25 nM
HEK-293 (MC4-R) cells Classification (MC4-R [4]): Agonist
Structure (SMILES): N=C(N)NCCCC(NC(=O)C(Cc1ccc(Cl)cc1)NC(=O)C(COCc1ccccc1)NC(=O)CCCCCCN)C(=O)NC(Cc1c[nH]c2ccccc12)C(N)=O [7′-amino-heptanoyl-Ser(Bzl)-D-Phe(4-Cl)-Arg-Trp-NH2]
conditioned taste aversion response ([1]; listed as 7′-amino-heptanoyl-Ser(Bzl)-D-Phe(4′-Cl)-Arg-Trp-NH2): did not induce a conditioned taste aversion response
average daily body weight gain ([3]; ICV 0.1 nmol): 3 g
average daily body weight lost ([3]; ICV 0.5 nmol): 1 g
average daily body weight lost ([3]; ICV 1.0 nmol): 3 g
time by which animals returned to baseline after dosing ([3]; ICV dosing, FIG. 4): ≤ 48 h
average daily body weight gain ([3]; IP 750 μg/kg): 4 g
average daily body weight gain ([3]; IP 1500 μg/kg): 2 g
average daily body weight lost ([3]; IP 3000 μg/kg): 1 g
penile erection induction [5]: induced erections
